The source of these data is ChEMBL document CHEMBL5465560, “Selectivity Literature for EUbOPEN Chemogenomic Library” (2024).

One test has as its target Insulin receptor (Homo sapiens, UniProt P06213). As to the kind of experiment: Selectivity interaction (Upstate Kinase Profiler service (Millipore)) EUB0000056c INSR. The following applies: at 1 µM.
In test [1] the target is T1, Ephrin type-A receptor 6 (Homo sapiens) (UniProt Q9UF33).
T1 sequence (whole entry): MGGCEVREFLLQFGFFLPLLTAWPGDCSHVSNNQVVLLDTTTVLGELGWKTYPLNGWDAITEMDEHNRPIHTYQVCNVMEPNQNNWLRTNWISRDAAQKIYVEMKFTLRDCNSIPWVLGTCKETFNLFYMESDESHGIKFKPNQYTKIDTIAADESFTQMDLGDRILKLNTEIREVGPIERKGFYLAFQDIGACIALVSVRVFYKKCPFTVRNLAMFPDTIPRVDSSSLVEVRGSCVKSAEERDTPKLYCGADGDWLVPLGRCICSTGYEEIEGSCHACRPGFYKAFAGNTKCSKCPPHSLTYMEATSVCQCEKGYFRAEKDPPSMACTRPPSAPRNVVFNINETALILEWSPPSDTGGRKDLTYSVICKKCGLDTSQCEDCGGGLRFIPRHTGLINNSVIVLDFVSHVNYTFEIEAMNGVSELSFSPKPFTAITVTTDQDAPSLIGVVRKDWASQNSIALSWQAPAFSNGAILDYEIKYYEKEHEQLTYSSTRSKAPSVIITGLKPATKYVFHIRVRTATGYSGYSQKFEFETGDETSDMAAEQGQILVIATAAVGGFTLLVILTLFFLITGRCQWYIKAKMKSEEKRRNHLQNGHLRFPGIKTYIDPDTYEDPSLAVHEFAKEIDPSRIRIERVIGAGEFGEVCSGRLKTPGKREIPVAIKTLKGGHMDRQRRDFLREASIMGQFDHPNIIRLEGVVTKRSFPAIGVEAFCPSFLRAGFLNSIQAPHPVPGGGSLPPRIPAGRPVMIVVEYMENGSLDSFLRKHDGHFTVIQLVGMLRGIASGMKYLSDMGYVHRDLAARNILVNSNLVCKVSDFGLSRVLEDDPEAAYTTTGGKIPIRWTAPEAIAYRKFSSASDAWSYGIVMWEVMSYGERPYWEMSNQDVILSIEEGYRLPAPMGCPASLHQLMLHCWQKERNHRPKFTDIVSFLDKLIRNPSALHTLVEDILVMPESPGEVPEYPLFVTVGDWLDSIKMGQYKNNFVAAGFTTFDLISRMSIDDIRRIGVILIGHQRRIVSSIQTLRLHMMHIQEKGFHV
Put plainly: Selectivity interaction (ProQinase) EUB0000171b EPHA6.

The target of test [2] is Serine/threonine-protein kinase MRCK alpha (Homo sapiens) (UniProt Q5VT25). Put plainly: Selectivity interaction (ProQinase) EUB0000171b CDC42BPA.
For test [3], the target named is T2, Serine/threonine-protein kinase haspin (Homo sapiens) (UniProt Q8TF76).
T2 sequence (whole entry): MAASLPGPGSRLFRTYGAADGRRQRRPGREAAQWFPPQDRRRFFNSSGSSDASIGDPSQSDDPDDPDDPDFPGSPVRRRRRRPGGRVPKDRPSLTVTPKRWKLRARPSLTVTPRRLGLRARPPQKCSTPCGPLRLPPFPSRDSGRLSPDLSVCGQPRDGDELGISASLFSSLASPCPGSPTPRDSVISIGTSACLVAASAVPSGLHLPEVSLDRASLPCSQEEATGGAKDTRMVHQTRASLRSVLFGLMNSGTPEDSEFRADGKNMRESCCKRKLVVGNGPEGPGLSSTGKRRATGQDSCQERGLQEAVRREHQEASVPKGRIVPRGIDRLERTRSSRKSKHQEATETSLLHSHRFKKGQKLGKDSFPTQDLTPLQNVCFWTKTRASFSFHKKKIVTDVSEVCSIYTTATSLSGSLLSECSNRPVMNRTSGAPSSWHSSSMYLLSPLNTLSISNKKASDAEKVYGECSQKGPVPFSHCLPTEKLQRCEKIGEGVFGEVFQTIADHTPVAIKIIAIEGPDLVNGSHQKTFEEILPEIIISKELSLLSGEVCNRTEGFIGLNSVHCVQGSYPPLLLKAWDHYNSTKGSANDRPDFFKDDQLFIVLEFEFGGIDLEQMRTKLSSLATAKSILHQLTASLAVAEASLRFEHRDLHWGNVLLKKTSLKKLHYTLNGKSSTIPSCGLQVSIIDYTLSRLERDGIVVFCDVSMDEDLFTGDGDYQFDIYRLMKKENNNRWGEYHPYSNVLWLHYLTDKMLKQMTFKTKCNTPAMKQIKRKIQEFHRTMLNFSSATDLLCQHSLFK
As to the kind of experiment: Selectivity interaction (Ambit KINOMEscan and KiNATiv profiling in Jurkat cells) EUB0000090b GSG2. Type of test: cell-based. The following applies: at 1 µM.

Test [4] addresses Rho-associated protein kinase 1 (Homo sapiens) (UniProt Q13464). As to the kind of experiment: Selectivity interaction (KinomeScan (DiscoverX)) EUB0001079a ROCK1. The following applies: at 1 µM.
Test [5] addresses Ephrin type-A receptor 2 (Homo sapiens) (UniProt P29317). As to the kind of experiment: Selectivity interaction (KinomeScan (DiscoverX)) EUB0000092b EPHA2. The following applies: at 10 µM.
For test [6], the target named is Serine/threonine-protein kinase MARK2 (Homo sapiens) (UniProt Q7KZI7). As to the kind of experiment: Selectivity interaction (KinomeScan (DiscoverX)) EUB0000655a MARK2. The following applies: at 10 µM.
In test [7] the target is Calcium/calmodulin-dependent protein kinase kinase 2 (Homo sapiens) (UniProt Q96RR4). As to the kind of experiment: Selectivity interaction (KinomeScan (DiscoverX)) EUB0000666a CAMKK2. The following applies: at 10 µM.
For test [8], the target named is Serine/threonine-protein kinase PAK 1 (Homo sapiens) (UniProt Q13153). As to the kind of experiment: Selectivity interaction (KinomeScan (DiscoverX)) EUB0000607a PAK1. The following applies: at 10 µM.
Test [9] has as its target Tyrosine-protein kinase ABL1 (Homo sapiens, UniProt P00519). Put plainly: Selectivity interaction (KinomeScan (DiscoverX)) EUB0000607a ABL1. The following applies: at 10 µM.
In test [10] the target is 5'-AMP-activated protein kinase catalytic subunit alpha-2 (Homo sapiens) (UniProt P54646). Put plainly: Selectivity interaction (ActivX KiNativ screen (kinase selectivity in THP-1 cell lysates)) EUB0000639a PRKAA2. The test is classed as subcellular. The following applies: lysate, at 0.2 µM.
Test [11] concerns the target Serine/threonine-protein kinase PRP4 homolog (Homo sapiens) (UniProt Q13523). Put plainly: Selectivity interaction (KinomeScan (DiscoverX)) EUB0000229b PRPF4B. The following applies: at 10 µM.
Test [12] has as its target BDNF/NT-3 growth factors receptor (Homo sapiens) (UniProt Q16620). As to the kind of experiment: Selectivity interaction (KinomeScan (DiscoverX)) EUB0001619a NTRK2. The following applies: at 1 µM.
The target of test [13] is Mitogen-activated protein kinase kinase kinase kinase 1 (Homo sapiens) (UniProt Q92918). As to the kind of experiment: Selectivity interaction (ActivX KiNativ screen (ex vivo kinase selectivity in human PBMCs)) EUB0001619a MAP4K1. Type of test: cell-based. The following applies: PBMC, at 1 µM.
In test [14] the target is Phosphatidylinositol 4-kinase alpha (Homo sapiens, UniProt P42356). As to the kind of experiment: Selectivity interaction (Kinase panel (KiNativ target engagement assay in Jurkat cells)) EUB0001635a PI4KA. The following applies: Selectivity number of off-targets 0.0, Selectivity number of targets 233.0, Source Knowledge https://www.sciencedirect.com/science/article/pii/S2451945619300674?via%3Dihub, at 1 µM. Type of test: cell-based.

Chain of Serine/threonine-protein kinase MRCK alpha (Homo sapiens) (Q5VT25 whole entry): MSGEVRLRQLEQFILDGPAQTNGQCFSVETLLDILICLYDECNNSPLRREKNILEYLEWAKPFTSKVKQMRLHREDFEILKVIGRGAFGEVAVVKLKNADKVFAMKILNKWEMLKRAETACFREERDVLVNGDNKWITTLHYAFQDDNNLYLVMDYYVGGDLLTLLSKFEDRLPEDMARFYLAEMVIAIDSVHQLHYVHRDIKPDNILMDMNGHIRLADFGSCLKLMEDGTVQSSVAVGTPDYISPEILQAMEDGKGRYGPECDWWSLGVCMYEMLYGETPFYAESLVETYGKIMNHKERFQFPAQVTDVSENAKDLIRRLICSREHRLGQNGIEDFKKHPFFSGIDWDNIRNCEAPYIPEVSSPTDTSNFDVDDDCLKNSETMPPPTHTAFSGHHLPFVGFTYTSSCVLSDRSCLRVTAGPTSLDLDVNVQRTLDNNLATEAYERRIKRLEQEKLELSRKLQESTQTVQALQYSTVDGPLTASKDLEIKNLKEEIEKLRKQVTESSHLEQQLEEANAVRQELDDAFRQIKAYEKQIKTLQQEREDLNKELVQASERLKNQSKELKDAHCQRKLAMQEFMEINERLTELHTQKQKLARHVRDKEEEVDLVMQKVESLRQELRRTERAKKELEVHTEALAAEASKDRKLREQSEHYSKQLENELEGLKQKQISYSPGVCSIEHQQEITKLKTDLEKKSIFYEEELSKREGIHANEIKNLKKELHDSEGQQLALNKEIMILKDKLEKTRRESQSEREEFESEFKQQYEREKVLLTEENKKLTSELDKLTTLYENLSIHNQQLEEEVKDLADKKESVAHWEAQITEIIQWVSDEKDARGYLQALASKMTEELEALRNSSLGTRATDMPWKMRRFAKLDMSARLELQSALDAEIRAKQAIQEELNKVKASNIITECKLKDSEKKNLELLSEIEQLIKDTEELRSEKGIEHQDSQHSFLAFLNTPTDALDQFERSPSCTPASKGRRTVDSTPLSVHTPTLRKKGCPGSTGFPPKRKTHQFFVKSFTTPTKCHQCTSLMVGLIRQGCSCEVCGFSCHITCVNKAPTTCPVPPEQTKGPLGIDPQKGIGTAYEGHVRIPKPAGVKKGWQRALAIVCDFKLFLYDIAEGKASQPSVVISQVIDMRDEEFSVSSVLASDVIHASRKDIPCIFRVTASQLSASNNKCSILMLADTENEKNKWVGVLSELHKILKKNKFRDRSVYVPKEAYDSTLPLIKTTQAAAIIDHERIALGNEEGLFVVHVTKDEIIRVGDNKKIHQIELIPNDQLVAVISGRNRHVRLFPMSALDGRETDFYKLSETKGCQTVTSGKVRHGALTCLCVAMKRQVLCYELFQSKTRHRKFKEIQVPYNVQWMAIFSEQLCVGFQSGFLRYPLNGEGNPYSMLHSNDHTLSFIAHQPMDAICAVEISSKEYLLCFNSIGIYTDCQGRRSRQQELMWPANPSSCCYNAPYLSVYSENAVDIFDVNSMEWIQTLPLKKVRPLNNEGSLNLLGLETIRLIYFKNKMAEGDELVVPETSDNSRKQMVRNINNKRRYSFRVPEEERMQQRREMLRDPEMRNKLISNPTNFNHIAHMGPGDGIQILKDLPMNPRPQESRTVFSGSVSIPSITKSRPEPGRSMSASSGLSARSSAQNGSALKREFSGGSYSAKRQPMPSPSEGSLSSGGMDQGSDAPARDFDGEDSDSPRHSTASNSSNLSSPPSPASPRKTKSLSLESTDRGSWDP
Chain of Ephrin type-A receptor 2 (Homo sapiens) (P29317 whole entry): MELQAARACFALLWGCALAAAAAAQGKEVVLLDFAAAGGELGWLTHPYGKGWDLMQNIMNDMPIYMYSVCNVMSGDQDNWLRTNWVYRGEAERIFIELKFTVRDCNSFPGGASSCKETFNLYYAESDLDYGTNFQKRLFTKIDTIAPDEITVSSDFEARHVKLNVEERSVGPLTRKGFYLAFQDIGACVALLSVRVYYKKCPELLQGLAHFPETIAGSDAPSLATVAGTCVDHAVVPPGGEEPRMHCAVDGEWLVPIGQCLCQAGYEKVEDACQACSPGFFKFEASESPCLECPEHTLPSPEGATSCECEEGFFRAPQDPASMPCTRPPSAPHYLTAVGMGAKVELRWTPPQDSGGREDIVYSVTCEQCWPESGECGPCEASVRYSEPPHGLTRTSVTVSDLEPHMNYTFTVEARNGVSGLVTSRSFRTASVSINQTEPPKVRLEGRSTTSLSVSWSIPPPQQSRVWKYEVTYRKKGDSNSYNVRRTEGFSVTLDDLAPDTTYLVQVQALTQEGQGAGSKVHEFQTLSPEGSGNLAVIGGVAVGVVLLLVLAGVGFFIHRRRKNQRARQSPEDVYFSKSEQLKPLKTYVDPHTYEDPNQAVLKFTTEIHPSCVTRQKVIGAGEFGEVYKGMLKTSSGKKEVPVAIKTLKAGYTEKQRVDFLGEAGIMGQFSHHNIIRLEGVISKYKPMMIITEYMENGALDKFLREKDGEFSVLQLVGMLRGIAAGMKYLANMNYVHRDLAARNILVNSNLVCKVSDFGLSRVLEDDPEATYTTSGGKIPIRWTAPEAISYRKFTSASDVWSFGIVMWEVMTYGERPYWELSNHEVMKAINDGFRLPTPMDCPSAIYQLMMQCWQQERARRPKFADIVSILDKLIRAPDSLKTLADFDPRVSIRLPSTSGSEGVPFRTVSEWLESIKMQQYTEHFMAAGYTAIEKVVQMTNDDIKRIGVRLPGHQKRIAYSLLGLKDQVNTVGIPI
Chain of Calcium/calmodulin-dependent protein kinase kinase 2 (Homo sapiens) (Q96RR4 2-588 limits assumed): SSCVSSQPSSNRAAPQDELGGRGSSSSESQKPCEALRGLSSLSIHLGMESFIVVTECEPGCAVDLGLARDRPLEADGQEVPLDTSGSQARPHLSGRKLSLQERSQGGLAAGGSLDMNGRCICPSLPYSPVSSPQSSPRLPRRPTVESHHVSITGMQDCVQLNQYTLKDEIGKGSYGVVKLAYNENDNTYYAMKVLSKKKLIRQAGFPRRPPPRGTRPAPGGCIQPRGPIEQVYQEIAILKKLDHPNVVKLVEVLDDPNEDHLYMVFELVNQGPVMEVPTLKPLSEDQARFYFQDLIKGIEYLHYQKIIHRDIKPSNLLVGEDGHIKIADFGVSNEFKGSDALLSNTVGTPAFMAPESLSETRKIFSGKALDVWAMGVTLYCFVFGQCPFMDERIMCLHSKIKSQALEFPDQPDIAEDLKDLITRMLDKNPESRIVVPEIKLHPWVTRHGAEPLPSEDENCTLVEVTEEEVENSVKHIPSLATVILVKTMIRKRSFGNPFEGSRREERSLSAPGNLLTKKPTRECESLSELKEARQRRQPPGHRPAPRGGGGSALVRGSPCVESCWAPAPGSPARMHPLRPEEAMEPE
Chain of Rho-associated protein kinase 1 (Homo sapiens) (Q13464 2-1354 limits assumed): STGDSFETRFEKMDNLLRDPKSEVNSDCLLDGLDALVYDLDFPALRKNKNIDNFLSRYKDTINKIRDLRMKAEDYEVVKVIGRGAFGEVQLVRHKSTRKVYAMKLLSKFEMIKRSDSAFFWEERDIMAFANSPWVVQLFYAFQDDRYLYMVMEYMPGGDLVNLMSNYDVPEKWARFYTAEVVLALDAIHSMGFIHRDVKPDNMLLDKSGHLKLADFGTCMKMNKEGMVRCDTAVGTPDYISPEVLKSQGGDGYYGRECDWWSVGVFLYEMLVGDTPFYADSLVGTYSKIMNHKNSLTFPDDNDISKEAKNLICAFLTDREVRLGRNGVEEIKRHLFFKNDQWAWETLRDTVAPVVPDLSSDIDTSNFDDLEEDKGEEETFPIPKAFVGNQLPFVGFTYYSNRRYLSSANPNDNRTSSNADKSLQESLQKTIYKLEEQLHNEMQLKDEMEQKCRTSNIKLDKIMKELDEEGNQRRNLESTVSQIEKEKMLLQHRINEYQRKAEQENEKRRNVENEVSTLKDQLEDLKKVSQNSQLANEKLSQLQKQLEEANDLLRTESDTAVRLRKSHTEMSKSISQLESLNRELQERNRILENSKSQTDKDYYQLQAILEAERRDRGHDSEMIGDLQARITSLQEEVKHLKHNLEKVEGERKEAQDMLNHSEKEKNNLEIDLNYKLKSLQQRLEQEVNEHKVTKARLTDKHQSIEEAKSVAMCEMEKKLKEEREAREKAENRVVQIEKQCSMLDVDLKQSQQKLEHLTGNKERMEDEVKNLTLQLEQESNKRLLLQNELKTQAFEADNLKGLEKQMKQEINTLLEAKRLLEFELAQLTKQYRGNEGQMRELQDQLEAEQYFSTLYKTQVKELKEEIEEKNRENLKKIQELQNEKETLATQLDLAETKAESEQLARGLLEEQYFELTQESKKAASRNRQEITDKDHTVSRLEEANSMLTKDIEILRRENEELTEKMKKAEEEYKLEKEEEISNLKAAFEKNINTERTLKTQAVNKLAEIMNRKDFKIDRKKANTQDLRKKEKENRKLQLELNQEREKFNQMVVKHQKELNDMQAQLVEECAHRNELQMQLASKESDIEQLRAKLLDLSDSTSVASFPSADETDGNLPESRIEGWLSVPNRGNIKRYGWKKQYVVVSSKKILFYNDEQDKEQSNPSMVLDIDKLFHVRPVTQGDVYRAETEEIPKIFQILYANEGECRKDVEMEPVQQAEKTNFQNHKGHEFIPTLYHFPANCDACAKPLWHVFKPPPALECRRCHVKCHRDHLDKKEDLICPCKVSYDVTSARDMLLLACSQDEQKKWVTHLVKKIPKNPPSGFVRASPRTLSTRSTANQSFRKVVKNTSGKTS

With `Cc1ccc(-c2ccc3c(ccc4sc5c(c43)NC[C@@H](C)NC5=O)n2)cn1`, the % of inhibition on Insulin receptor came to 5%. Consider `C=CC(=O)Nc1cccc(C(=O)Nc2ccc(Nc3cc(-c4[nH]c(SC)nc4C)ccn3)cc2)c1`, for which the % of control in test [1] (at 1 µM) was determined as 99%; in test [1] (at 5 µM) it was 100%; in test [2] (at 1 µM), 102%; in test [2] (at 5 µM), 91%. The compound `CN(C)C/C=C/C(=O)Nc1ccc(C(=O)N2CCCC(Nc3ncc(Cl)c(-c4c[nH]c5ccccc45)n3)C2)cc1` (configuration not stated) gave a % of control in [3] of 73%. In test [4], `Nc1cnc(N2CCc3cc(S(=O)(=O)Nc4c(F)cc(Cl)cc4F)cc(N4CCCC4=O)c32)nc1` [TP-020n] came in with a % of control of 96%. In the case of `CCC(=O)N1CCN(c2ccc(-n3c(=O)ccc4cnc5ccc(-c6cnc7ccccc7c6)cc5c43)cc2C(F)(F)F)CC1`, in test [5], the % of control turned out to be 59%. In turn, `CN(C)CCOc1ccc(-c2nc(-c3ccncc3)c(-c3ccc4c(c3)CC/C4=N\O)[nH]2)cc1` displayed a % of control in [6] of 100%. For the compound `O=C(NOC[C@H](O)CO)c1ccc(F)c(F)c1Nc1ccc(I)cc1F`, in test [7], the % of control is 100%. In the case of `CNC(=O)Nc1ccc(-c2nc(N3CC4CCC(C3)O4)c3cnn(C4CCC5(CC4)OCCO5)c3n2)cc1`, the % of control in test [8] and in test [9] was 100% each time. Turning to `CC[C@@H]1[C@H](F)C(=O)N[C@@H]1COc1nccc2cc(C(N)=O)c(OC)cc12` [ZIMLOVISERTIB], in test [10], the % of inhibition was -4.3%.

Regarding `COc1cc(N(C)c2ccnc3ccc(C(F)(F)F)cc23)cc(OC)c1OC`, in [11], the % binding stood at 100%. Turning to `N#Cc1cccc(-c2c[nH]c3ncnc(N4CCOCC4)c23)c1`, the % of control in test [12] worked out at 63%. Further, in test [13], the % of inhibition worked out at 6%. In test [14], `C=CC(=O)Nc1ccc(C(=O)Nc2[nH]nc3c2CN(C(=O)N[C@H](CN(C)C)c2ccccc2)C3(C)C)cc1` came in with a % of engagement of 5.7%.
